Test results taken from patent US20030068615A1, “Polypeptides that bind HIV gp120 and related nucleic acids, antibodies, compositions, and methods of use” (priority 1999, published 2003).
Where two headings read alike, the source gives them in different places.

Target: HIV-1LAI envelope gp120 (Human immunodeficiency virus type 1 group M subtype B, UniProt P03377)
Assay type: binding
Settings: for Counts per 20′ Average-background: CCR5 18-mer scan, radiolabeled HIV-1LAI gp120; for Binding Results For Window Length (counts bound-background), 9 / Binding Results For Window Length (counts bound-background), 12 / Binding Results For Window Length (counts bound-background), 15 / Binding Results For Window Length (counts bound-background), 18: STRL33 amino terminus; for Binding Results For Window Length (counts bound-background), 9: 9-mer starting at the first residue of the printed sequence; for Binding Results For Window Length (counts bound-background), 12: 12-mer starting at the first residue of the printed sequence; for Binding Results For Window Length (counts bound-background), 15: 15-mer starting at the first residue of the printed sequence; for Binding Results For Window Length (counts bound-background), 18: 18-mer starting at the first residue of the printed sequence
[1] = Panel E, 9-mers and 12-mers of CD4, empty control 571
[2] = Panel C, 15-mers and 18-mers of CD4, empty control 556
[3] = Panel A, 21-mers of CD4, empty control 515 and 617
[4] = CXCR4 18-mer scan, background subtracted, empty control 0
[5] = CXCR4 18-mer scan, empty control 412
[6] = STRL33 18-mer scan, background subtracted, first of two count columns
[7] = STRL33 18-mer scan, background subtracted, second of two count columns
[8] = Panel D, 9-mers and 12-mers of CD4, empty control […]
[9] = Panel B, 15-mers and 18-mers of CD4, empty control 575

## FKIDIVVLAFQK
[1]
  COUNTS of radiolabeled gp120 retained: 736 counts

## FKIDIVVLAFQKASS
[2]
  COUNTS of radiolabeled gp120 retained: 1001 counts

## FKIDIVVLAFQKASSIVY
[2]
  COUNTS of radiolabeled gp120 retained: 843 counts

## FKIDIVVLAFQKASSIVYKKE
[3]
  COUNTS of radiolabeled gp120 retained: 593 counts

## FKTSAQHALTSVSRGSSL
[4]
  radioactive counts recorded in twenty minutes: 173 counts
[5]
  radioactive counts recorded in twenty minutes: 585 counts

## FLFWAPYNIVLLLNTFQE [CCR5 segment 245-]
Background subtracted
  Counts per 20′ Average-background: 616 counts per 20′

## FLPCMYLVVFVCGLVGNS [STRL33 segment 33-50]
[6]
  radioactive counts recorded in twenty minutes: 605.5 counts
[7]
  radioactive counts recorded in twenty minutes: 372.5 counts

## FLPLLTMIVCYSVIIKTL
[6]
  radioactive counts recorded in twenty minutes: 1270.5 counts
[7]
  radioactive counts recorded in twenty minutes: 1195.5 counts

## FLTGIVGNGLVILVMGYQ [CXCR4 segment 49-66]
[4]
  radioactive counts recorded in twenty minutes: 246 counts
[5]
  radioactive counts recorded in twenty minutes: 658 counts

## FLVNLPLADLVFVCTLPF [STRL33 segment 69-86]
[6]
  radioactive counts recorded in twenty minutes: 70.5 counts
[7]
  radioactive counts recorded in twenty minutes: 51.5 counts

## FNDSSQEEEQAFLQFSKV
Background subtracted
  Binding Results For Window Length (counts bound-background), 9: 246 counts
  Binding Results For Window Length (counts bound-background), 12: 470 counts
  Binding Results For Window Length (counts bound-background), 15: 4089 counts
  Binding Results For Window Length (counts bound-background), 18: 4678 counts

## FNLDKLICGYHDEAISTV
[6]
  radioactive counts recorded in twenty minutes: 1072.5 counts
[7]
  radioactive counts recorded in twenty minutes: 1078.5 counts

## FPLAFTVEK
[1]
  COUNTS of radiolabeled gp120 retained: 569 counts

## FPLAFTVEKLTG
[1]
  COUNTS of radiolabeled gp120 retained: 622 counts

## FPLAFTVEKLTGSGE
[2]
  COUNTS of radiolabeled gp120 retained: 556 counts

## FPLAFTVEKLTGSGELWW
[2]
  COUNTS of radiolabeled gp120 retained: 586 counts

## FPLAFTVEKLTGSGELWWQAE
[3]
  COUNTS of radiolabeled gp120 retained: 6276 counts

## FPLIIKNLK
[8]
  COUNTS of radiolabeled gp120 retained: 601 counts

## FPLIIKNLKIED
[8]
  COUNTS of radiolabeled gp120 retained: 511 counts

## FPLIIKNLKIEDSDT
[9]
  COUNTS of radiolabeled gp120 retained: 539 counts

## FPLIIKNLKIEDSDTYIC
[9]
  COUNTS of radiolabeled gp120 retained: 509 counts

## FQHIMVGLILPGIVILSC
[4]
  radioactive counts recorded in twenty minutes: 170 counts
[5]
  radioactive counts recorded in twenty minutes: 582 counts

## FQKASSIVY
[1]
  COUNTS of radiolabeled gp120 retained: 568 counts

## FQKASSIVYKKE
[1]
  COUNTS of radiolabeled gp120 retained: 577 counts

## FQKASSIVYKKEGEQ
[2]
  COUNTS of radiolabeled gp120 retained: 637 counts

## FQKASSIVYKKEGEQVEF
[2]
  COUNTS of radiolabeled gp120 retained: 528 counts

## FQKASSIVYKKEGEQVEFSFP
[3]
  COUNTS of radiolabeled gp120 retained: 9382 counts

## FQTLKIVILGLVLPLLVM [CCR5 segment 193-]
Background subtracted
  Counts per 20′ Average-background: 45 counts per 20′

## FREENANFNKIFLPTIYS [CXCR4 segment 29-46]
[4]
  radioactive counts recorded in twenty minutes: 51 counts
[5]
  radioactive counts recorded in twenty minutes: 463 counts

## FSFPLAFTV
[1]
  COUNTS of radiolabeled gp120 retained: 472 counts

## FSFPLAFTVEKL
[1]
  COUNTS of radiolabeled gp120 retained: 573 counts

## FSFPLAFTVEKLTGS
[2]
  COUNTS of radiolabeled gp120 retained: 672 counts

## FSFPLAFTVEKLTGSGEL
[2]
  COUNTS of radiolabeled gp120 retained: 613 counts

## FSFPLAFTVEKLTGSGELWWQ
[3]
  COUNTS of radiolabeled gp120 retained: 4163 counts
Human CD4 21-mer scan, empty control 2075
  number of radioactive decays (counts) counted: 9673 counts

## FSGIFFIILLTIDRYLAV [CCR5 segment 113-]
Background subtracted
  Counts per 20′ Average-background: 83 counts per 20′

## FSKVFLPCMYLVVFVCGL [STRL33 segment 29-46]
[6]
  radioactive counts recorded in twenty minutes: 534.5 counts
[7]
  radioactive counts recorded in twenty minutes: 633.5 counts

## FSSFNDSSQEEHQAFLQF
Background subtracted
  Binding Results For Window Length (counts bound-background), 9: 249 counts
  Binding Results For Window Length (counts bound-background), 12: 403 counts
  Binding Results For Window Length (counts bound-background), 15: 361 counts
  Binding Results For Window Length (counts bound-background), 18: 3608 counts

## FTVEKLTGS
[1]
  COUNTS of radiolabeled gp120 retained: 574 counts

## FTVEKLTGSGEL
[1]
  COUNTS of radiolabeled gp120 retained: 530 counts

## FTVEKLTGSGELWWQ
[2]
  COUNTS of radiolabeled gp120 retained: 625 counts

## FTVEKLTGSGELWWQAER
[2]
  COUNTS of radiolabeled gp120 retained: 1143 counts

## FVGNMLVILILINCKRLK [CCR5 segment 45-62]
Background subtracted
  Counts per 20′ Average-background: 62 counts per 20′

## FWAHYAAAQWDFGNTMCQ [CCR5 segment 85-]
Background subtracted
  Counts per 20′ Average-background: 212 counts per 20′

## FWAVDAVANWYFGNFLCK [CXCR4 segment 93-110]
[4]
  radioactive counts recorded in twenty minutes: 66 counts
[5]
  radioactive counts recorded in twenty minutes: 478 counts

## FWKNFQTLKIVILGLVLP [CCR5 segment 189-]
Background subtracted
  Counts per 20′ Average-background: 40 counts per 20′

## FYPNDLWVVVFQFQHIMV [CXCR4 segment 189-206]
[4]
  radioactive counts recorded in twenty minutes: 416 counts
[5]
  radioactive counts recorded in twenty minutes: 828 counts
